Reference: patent US20080269170A1, “Novel 2,4-Dianilinopyrimidine Derivatives, the Preparation Thereof, Their Use as Medicaments, Pharmaceutical Compositions and, in Particular, as IKK Inhibitors” (sanofi-aventis, priority 2005, published 2008)
Where a name gives a salt, the structure may show the parent alone.

| Compound | melting point [°C] |
| --- | --- |
| CN1C2CCC1CC(N(C)S(=O)(=O)c1ccc(Nc3nccc(Nc4ccc(F)cc4)n3)cc1)C2 (stereo not shown) | 184.5 |
| CCOP(=O)(CCN1CCC(NS(=O)(=O)c2ccc(Nc3nccc(Nc4ccc(F)c(F)c4)n3)cc2)CC1)OCC | 133 |
| CCOP(=O)(CN1CCC(NS(=O)(=O)c2ccc(Nc3nccc(Nc4ccc(F)c(F)c4)n3)cc2)CC1)OCC | 137.8 |
| CCOP(=O)(CCN1CCC(N(C)S(=O)(=O)c2ccc(Nc3nccc(Nc4ccc(F)c(F)c4)n3)cc2)CC1)OCC | 93 to 96 |
| CCOP(=O)(CCN1CCC(N(CCN)S(=O)(=O)c2ccc(Nc3nccc(Nc4ccc(F)c(F)c4)n3)cc2)CC1)OCC | 88 to 90 |
| CCOP(=O)(CCN1CCC(N(CCCN)S(=O)(=O)c2ccc(Nc3nccc(Nc4ccc(F)c(F)c4)n3)cc2)CC1)OCC | 94 to 96 |
| CCOP(=O)(CCN1CCC(N(C)S(=O)(=O)c2ccc(Nc3nccc(Nc4ccc(F)cc4)n3)cc2)CC1)OCC | 95 to 100 |
| CCOP(=O)(CCCN1CCC(NS(=O)(=O)c2ccc(Nc3nccc(Nc4ccc(F)cc4)n3)cc2)CC1)OCC | 110 |
| CCOP(=O)(CCN1CCC(N(CCCN)S(=O)(=O)c2ccc(Nc3nccc(Nc4ccc(F)cc4)n3)cc2)CC1)OCC | 125 to 130 |
| CCOP(=O)(CCN1CCC(N(CCN2CCCC2)S(=O)(=O)c2ccc(Nc3nccc(Nc4ccc(F)cc4)n3)cc2)CC1)OCC | 85 |
| CC(C)(O)CNCCN(C1CCN(Cc2ccccc2)CC1)S(=O)(=O)c1ccc(Nc2nccc(Nc3ccc(F)cc3)n2)cc1 (as salt: hydrochloride) | 200 |
| CN(C1CCNCC1)S(=O)(=O)c1ccc(Nc2nccc(Nc3ccc(F)c(F)c3)n2)cc1 (as salt: hydrochloride) | 275 |
| Cc1cc(Nc2ccnc(Nc3ccc(S(=O)(=O)N(C)C4CCNCC4)cc3)n2)ccc1F (as salt: hydrochloride) | 215 to 220 |
| CCOP(=O)(CCN1CCC(N(CC2CCCN2)S(=O)(=O)c2ccc(Nc3nccc(Nc4ccc(F)cc4)n3)cc2)CC1)OCC (stereo not shown) (as salt: hydrochloride) | 185 |
| Cc1cc(Nc2ccnc(Nc3ccc(S(=O)(=O)N(CCN)C4CNC4)cc3)n2)ccc1F (as salt: hydrochloride) | 205 |
| Cc1cc(Nc2ccnc(Nc3ccc(S(=O)(=O)N(CCN)C4CCN(CC(F)(F)F)CC4)cc3)n2)ccc1F (as salt: hydrochloride) | 225 |
| CN(C1CCNCC1)S(=O)(=O)c1ccc(Nc2nccc(Nc3ccc(F)cc3)n2)cc1 (as salt: hydrochloride) [Example 8, 4-[4-(4-Fluorophenylamino)pyrimidin-2-ylamino]-N-methyl-N-piperidin-4-yl-benzenesulfonamide] | 205 to 210 |

Results, then the molecule that gave them:

| melting point [°C] | Compound |
| --- | --- |
| 90 | CCOP(=O)(CCN1CCC(N(CCN)S(=O)(=O)c2ccc(Nc3nccc(Nc4ccc(F)cc4)n3)cc2)CC1)OCC |
| 225 | CN1CCC(N(CCN)S(=O)(=O)c2ccc(Nc3nccc(Nc4ccc(F)cc4)n3)cc2)CC1 (as salt: hydrochloride) |
| 220 | CN(C)CCN(C1CCNCC1)S(=O)(=O)c1ccc(Nc2nccc(Nc3ccc(F)cc3)n2)cc1 (as salt: hydrochloride) |
| 200 | O=S(=O)(c1ccc(Nc2nccc(Nc3ccc(F)cc3)n2)cc1)N(CCN1CCCC1)C1CCNCC1 (as salt: hydrochloride) |
| 230 to 232 | NCCN(C1CCN(Cc2ccccc2)CC1)S(=O)(=O)c1ccc(Nc2nccc(Nc3ccc(F)cc3)n2)cc1 (as salt: hydrochloride) |
| > 220 | NCCN(C1CNC1)S(=O)(=O)c1ccc(Nc2nccc(Nc3ccc(F)cc3)n2)cc1 (as salt: hydrochloride) |
| 250 | CCNCCN(C1CCNCC1)S(=O)(=O)c1ccc(Nc2nccc(Nc3ccc(F)cc3)n2)cc1 (as salt: hydrochloride) |
| 200 | NCCN(C1CCOCC1)S(=O)(=O)c1ccc(Nc2nccc(Nc3ccc(F)cc3)n2)cc1 (as salt: hydrochloride) |
